Experimental data published in ChEMBL document CHEMBL1148857, “In vitro and in vivo profile of 5-[(4'-trifluoromethyl-biphenyl-2-carbonyl)-amino]-1H-indole-2-carboxylic acid benzylmethyl carbamoylamide (dirlotapide), a novel potent MTP inhibitor for obesity” (Bioorg Med Chem Lett, 2007).
Calls of active or inactive are those of the source. No cut-off for these calls is given here.

How the values were obtained:
Cytochrome P450 3A4 = Cytochrome P450 3A4 (Homo sapiens, UniProt P08684); test: Inhibition of CYP3A4; format: ADME
Sequence of Cytochrome P450 3A4 (P08684 whole entry): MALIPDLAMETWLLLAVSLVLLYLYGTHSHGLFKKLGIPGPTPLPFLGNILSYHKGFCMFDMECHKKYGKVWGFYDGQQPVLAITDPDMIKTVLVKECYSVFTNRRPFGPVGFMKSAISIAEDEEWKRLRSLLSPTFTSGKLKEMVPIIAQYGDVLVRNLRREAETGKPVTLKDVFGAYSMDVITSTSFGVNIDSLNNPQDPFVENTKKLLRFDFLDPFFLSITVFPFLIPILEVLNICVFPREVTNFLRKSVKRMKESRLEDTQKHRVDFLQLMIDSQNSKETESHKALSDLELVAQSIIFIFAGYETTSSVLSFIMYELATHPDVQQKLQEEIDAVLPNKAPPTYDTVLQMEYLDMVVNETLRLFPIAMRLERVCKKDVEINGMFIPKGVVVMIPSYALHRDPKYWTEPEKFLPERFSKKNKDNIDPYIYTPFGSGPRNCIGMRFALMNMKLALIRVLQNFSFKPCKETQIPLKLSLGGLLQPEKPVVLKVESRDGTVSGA

Homo sapiens [1] = species: Homo sapiens; test: Inhibition of tachykinin receptor at 1 uM
[2] = Half life in portal cannulated Beagle dog at 1 mg/kg, po; format: ADME, organism-based, Canis lupus familiaris; set-up: dose 1 mg/kg, route oral; conditions: in vivo
[3] = biological target: Type-1 angiotensin II receptor (Homo sapiens) (UniProt P30556); test: Inhibition of AT1 receptor at 1 uM
Sequence of Type-1 angiotensin II receptor (Homo sapiens) (P30556 whole entry): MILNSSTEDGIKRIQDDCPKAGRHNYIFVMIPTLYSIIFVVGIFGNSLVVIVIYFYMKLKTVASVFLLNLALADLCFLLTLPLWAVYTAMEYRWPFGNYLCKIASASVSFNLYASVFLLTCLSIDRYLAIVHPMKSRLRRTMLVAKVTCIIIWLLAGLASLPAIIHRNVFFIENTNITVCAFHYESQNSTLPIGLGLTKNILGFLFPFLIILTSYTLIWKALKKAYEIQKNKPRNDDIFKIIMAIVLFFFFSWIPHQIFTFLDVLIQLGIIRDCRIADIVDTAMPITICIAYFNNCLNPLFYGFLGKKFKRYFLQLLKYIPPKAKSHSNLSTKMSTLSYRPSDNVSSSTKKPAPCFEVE

[4] = biological target: Muscarinic acetylcholine receptor M1 (Homo sapiens) (UniProt P11229); test: Inhibition of muscarinic M1 receptor at 1 uM
[5] = biological target: Voltage-gated L-type calcium channel (Homo sapiens, UniProt Q13936+Q13698+Q01668+O60840); test: Inhibition of L-type calcium channel at 1 uM
[6] = biological target: 5-hydroxytryptamine receptor 4 (Homo sapiens) (UniProt Q13639); test: Inhibition of 5HT4 receptor at 1 uM
[7] = Permeability from basolateral to apical side of the Caco-2 cell membrane at 10 uM in presence of calcium; format: ADME, cell-based; conditions: human
[8] = AUC (0 to infinity) in Beagle dog at 0.5 mg/kg, po; format: ADME, organism-based, Canis lupus familiaris; set-up: time infinity, dose 0.5 mg/kg, route oral; conditions: plasma
[9] = biological target: Adrenergic receptor alpha-2 (Homo sapiens) (UniProt P08913+P18825+P18089); test: Inhibition of adrenergic a2 receptor at 1 uM; format: protein assay
Plasma [10] = test: Percentage unbound ligand in rat blood at 1 uM; format: ADME, cell-free
Canis familiaris [11] = test: Increase in fecal fat in obese Beagle dog at 0.39 mg/kg, po after 3 months; format: functional, Canis lupus familiaris, Feces
[12] = biological target: Muscarinic acetylcholine receptor M4 (Homo sapiens) (UniProt P08173); test: Inhibition of muscarinic M4 receptor at 1 uM
Sequence of Muscarinic acetylcholine receptor M4 (Homo sapiens) (P08173 whole entry): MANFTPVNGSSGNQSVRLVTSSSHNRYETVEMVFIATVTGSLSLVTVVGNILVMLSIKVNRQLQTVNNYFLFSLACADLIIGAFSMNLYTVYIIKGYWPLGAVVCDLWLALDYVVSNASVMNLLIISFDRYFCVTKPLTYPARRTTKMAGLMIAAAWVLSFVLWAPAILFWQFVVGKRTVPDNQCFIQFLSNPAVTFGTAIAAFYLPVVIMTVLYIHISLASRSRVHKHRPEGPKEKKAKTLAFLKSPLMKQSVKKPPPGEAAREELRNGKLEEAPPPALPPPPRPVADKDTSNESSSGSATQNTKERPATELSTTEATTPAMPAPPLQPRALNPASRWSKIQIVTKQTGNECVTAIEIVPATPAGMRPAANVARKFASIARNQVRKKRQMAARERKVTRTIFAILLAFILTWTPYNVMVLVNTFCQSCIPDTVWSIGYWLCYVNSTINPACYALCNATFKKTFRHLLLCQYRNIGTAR

[13] = AUC (0 to infinity) in Beagle dog at 0.5 mg/kg, iv; format: ADME, organism-based, Canis lupus familiaris; set-up: time infinity, dose 0.5 mg/kg, route intravenous; conditions: plasma
[14] = biological target: Type-2 angiotensin II receptor (Homo sapiens) (UniProt P50052); test: Inhibition of AT2 receptor at 1 uM
Sequence of Type-2 angiotensin II receptor (Homo sapiens) (P50052 whole entry): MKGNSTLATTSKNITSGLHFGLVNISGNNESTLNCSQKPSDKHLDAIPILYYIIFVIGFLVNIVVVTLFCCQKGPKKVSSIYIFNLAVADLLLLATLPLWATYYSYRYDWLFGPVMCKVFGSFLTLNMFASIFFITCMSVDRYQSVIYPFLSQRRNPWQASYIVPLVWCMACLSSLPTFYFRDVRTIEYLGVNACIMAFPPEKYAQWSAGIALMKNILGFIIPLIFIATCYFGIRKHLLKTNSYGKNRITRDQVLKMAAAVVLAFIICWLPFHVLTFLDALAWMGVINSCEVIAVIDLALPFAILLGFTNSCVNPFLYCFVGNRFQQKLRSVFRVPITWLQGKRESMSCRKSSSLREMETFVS

[15] = AUC (0 to infinity) in male rat at 30 mg/kg, po; format: ADME, organism-based; set-up: time infinity, dose 30 mg/kg, route oral; conditions: plasma
CYP2C19 = test: Metabolic stability in human liver microsome at 0.5 uM in presence of 200 uM CYP2C19 inhibitor (S)-mephenytoin; format: ADME; conditions: liver microsomes, with 200 uM (S)-mephenytoin (CYP2C19 inhibitor)
Homo sapiens [16] = species: Homo sapiens; test: Inhibition of neuronal nicotinic receptor at 1 uM
[17] = Tmax in rat at 3 mg/kg, po; format: ADME, organism-based; set-up: dose 3 mg/kg, route oral; conditions: in vivo
[18] = biological target: 5-hydroxytryptamine receptor 2C (Homo sapiens) (UniProt P28335); test: Inhibition of 5HT2C receptor at 1 uM
[19] = AUC (0 to t) in monkey at 0.5 mg/kg, iv; format: ADME, organism-based, Macaca mulatta; set-up: dose 0.5 mg/kg, route intravenous; conditions: rhesus monkey, plasma
Plasma [20] = test: Percentage unbound ligand in dog blood at 0.2 uM; format: ADME, cell-free, Canis lupus familiaris
[21] = Metabolic stability in human liver microsome at 0.5 uM; format: ADME; conditions: liver microsomes
[22] = Volume of distribution at steady state in rat at 5 mg/kg, iv; format: ADME, organism-based; set-up: dose 5 mg/kg, route intravenous; conditions: in vivo, read-out: Vdss
[23] = biological target: 5-hydroxytryptamine receptor 2A (Homo sapiens) (UniProt P28223); test: Inhibition of 5HT2A receptor at 1 uM
Homo sapiens [24] = species: Homo sapiens; test: Inhibition of muscle nicotinic receptor at 1 uM
[25] = Permeability from apical to basolateral side of the Caco-2 cell membrane at 10 uM in presence of calcium; format: ADME, cell-based; conditions: human
CYP1A2 = test: Metabolic stability in human liver microsome at 0.5 uM in presence of 5 uM CYP1A2 inhibitor furafylline; format: ADME; conditions: liver microsomes, with 5 uM furafylline (CYP1A2 inhibitor)
[26] = biological target: D(3) dopamine receptor (Homo sapiens) (UniProt P35462); test: Inhibition of dopamine D3 receptor at 1 uM
Sequence of D(3) dopamine receptor (Homo sapiens) (P35462 whole entry): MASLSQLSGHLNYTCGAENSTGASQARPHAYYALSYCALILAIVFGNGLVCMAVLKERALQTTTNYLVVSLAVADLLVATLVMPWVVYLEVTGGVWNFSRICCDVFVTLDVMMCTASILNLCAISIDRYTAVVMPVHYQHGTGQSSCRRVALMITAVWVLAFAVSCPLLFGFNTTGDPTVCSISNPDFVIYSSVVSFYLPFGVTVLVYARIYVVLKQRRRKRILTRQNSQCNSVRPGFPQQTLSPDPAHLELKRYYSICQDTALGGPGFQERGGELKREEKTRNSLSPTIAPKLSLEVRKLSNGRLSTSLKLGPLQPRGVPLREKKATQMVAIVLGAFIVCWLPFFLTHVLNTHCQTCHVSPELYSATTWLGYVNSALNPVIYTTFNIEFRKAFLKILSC

[27] = Cmax in Beagle dog at 5 mg/kg, po; format: ADME, organism-based, Canis lupus familiaris; set-up: dose 5 mg/kg, route oral; conditions: in vivo
[28] = biological target: Histamine H1 receptor (Homo sapiens) (UniProt P35367); test: Inhibition of histamine H1 receptor at 1 uM
Sequence of Histamine H1 receptor (Homo sapiens) (P35367 whole entry): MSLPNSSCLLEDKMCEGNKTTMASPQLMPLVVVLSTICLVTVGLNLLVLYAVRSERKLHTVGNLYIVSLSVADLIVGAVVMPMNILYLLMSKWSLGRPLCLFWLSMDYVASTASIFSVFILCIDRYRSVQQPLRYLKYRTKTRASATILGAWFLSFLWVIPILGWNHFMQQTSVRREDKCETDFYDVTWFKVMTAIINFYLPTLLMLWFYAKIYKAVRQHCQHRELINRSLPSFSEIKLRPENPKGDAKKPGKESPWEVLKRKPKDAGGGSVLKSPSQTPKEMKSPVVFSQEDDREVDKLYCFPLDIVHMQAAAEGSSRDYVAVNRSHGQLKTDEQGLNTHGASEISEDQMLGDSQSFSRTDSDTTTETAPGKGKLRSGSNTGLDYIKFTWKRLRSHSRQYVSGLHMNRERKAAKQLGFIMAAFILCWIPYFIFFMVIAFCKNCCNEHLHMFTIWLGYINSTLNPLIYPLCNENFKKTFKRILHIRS

[29] = Half life in Beagle dog at 1 mg/kg, iv; format: ADME, organism-based, Canis lupus familiaris; set-up: dose 1 mg/kg, route intravenous; conditions: in vivo
[30] = AUC (0 to infinity) in monkey at 0.5 mg/kg, iv; format: ADME, organism-based, Macaca mulatta; set-up: time infinity, dose 0.5 mg/kg, route intravenous; conditions: rhesus monkey, plasma
[31] = Volume of distribution at steady state in monkey at 0.5 mg/kg, iv; format: ADME, organism-based, Macaca mulatta; set-up: dose 0.5 mg/kg, route intravenous; conditions: rhesus monkey, in vivo, read-out: Vdss
Mus musculus [32] = species: Mus musculus; test: Inhibition of hepatic MTP in mouse assessed as reduction of triglyceride; format: functional
[33] = Plasma clearance in Beagle dog at 0.5 mg/kg, iv; format: ADME, organism-based, Canis lupus familiaris; set-up: dose 0.5 mg/kg, route intravenous
[34] = biological target: Mu-type opioid receptor (Homo sapiens) (UniProt P35372); test: Inhibition of mu opioid receptor at 1 uM
Sequence of Mu-type opioid receptor (Homo sapiens) (P35372 whole entry): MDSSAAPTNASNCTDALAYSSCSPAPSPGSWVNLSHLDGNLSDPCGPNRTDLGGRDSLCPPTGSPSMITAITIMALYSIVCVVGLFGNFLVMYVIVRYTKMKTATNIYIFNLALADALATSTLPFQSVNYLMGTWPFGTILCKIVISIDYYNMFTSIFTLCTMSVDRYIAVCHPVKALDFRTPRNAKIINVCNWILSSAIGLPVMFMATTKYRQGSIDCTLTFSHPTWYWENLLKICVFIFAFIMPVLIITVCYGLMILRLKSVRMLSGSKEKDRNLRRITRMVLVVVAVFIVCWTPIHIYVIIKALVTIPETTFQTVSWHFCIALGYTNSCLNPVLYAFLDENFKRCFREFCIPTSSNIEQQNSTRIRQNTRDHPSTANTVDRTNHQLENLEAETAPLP

[35] = Ratio of drug level in blood to plasma in human; format: ADME, cell-free; conditions: blood and plasma, read-out: BPR
[36] = biological target: D(2) dopamine receptor (Homo sapiens) (UniProt P14416); test: Inhibition of dopamine D2 receptor at 1 uM
Sequence of D(2) dopamine receptor (Homo sapiens) (P14416 whole entry): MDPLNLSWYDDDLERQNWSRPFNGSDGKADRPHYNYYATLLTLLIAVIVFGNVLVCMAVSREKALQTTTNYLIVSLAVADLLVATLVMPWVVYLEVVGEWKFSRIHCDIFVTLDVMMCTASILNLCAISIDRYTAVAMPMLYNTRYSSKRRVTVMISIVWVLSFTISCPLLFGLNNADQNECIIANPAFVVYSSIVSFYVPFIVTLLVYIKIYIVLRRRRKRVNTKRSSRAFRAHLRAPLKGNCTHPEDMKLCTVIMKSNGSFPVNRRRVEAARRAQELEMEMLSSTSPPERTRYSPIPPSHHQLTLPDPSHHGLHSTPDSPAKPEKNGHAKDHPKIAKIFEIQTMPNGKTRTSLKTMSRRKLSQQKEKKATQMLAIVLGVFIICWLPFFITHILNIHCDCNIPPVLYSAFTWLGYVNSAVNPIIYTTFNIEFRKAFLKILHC

[37] = Half life in Beagle dog at 0.5 mg/kg, iv; format: ADME, organism-based, Canis lupus familiaris; set-up: dose 0.5 mg/kg, route intravenous; conditions: in vivo
[38] = AUC (0 to infinity) in rat at 0.3 mg/kg, iv; format: ADME, organism-based; set-up: time infinity, dose 0.3 mg/kg, route intravenous; conditions: plasma
Mus musculus [39] = species: Mus musculus; test: Inhibition of intestinal MTP in mouse assessed as inhibition of intestinal fat absorption; format: functional
[40] = AUC (0 to t) in rat at 5 mg/kg, iv; format: ADME, organism-based; set-up: dose 5 mg/kg, route intravenous; conditions: plasma
[41] = Half life in rat at 30 mg/kg, po; format: ADME, organism-based; set-up: dose 30 mg/kg, route oral; conditions: in vivo
Cytochrome P450 2C19 = Cytochrome P450 2C19 (Homo sapiens, UniProt P33261); test: Inhibition of CYP2C19; format: ADME
Sequence of Cytochrome P450 2C19 (P33261 whole entry): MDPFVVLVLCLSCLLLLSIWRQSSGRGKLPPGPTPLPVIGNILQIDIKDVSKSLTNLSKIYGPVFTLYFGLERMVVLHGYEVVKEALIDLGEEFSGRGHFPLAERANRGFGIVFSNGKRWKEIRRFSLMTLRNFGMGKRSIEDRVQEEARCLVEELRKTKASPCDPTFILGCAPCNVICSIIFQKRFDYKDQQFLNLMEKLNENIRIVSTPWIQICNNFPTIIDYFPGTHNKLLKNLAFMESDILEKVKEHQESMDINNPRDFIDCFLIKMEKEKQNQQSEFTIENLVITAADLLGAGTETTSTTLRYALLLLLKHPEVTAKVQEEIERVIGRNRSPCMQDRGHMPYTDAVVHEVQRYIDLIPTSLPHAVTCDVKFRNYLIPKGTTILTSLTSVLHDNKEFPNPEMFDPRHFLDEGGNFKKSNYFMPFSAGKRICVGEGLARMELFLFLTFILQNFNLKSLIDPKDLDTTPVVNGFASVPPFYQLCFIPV

Cytochrome P450 2D6 = Cytochrome P450 2D6 (Homo sapiens, UniProt P10635); test: Inhibition of CYP2D6; format: ADME
Sequence of Cytochrome P450 2D6 (P10635 whole entry): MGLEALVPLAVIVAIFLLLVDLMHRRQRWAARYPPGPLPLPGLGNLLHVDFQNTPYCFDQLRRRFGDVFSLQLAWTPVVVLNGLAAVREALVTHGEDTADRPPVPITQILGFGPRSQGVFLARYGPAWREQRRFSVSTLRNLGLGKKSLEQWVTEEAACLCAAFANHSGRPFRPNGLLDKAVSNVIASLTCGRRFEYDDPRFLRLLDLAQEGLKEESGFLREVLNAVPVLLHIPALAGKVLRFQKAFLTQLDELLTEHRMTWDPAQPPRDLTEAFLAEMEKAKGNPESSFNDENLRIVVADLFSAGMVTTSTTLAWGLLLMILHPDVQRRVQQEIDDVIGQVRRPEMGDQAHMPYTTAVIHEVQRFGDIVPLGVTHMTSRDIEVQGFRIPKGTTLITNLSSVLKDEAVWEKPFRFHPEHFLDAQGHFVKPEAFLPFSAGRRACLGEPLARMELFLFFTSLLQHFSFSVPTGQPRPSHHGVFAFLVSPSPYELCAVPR

[42] = Plasma clearance in portal cannulated Beagle dog at 1 mg/kg, iv; format: ADME, organism-based, Canis lupus familiaris; set-up: dose 1 mg/kg, route intravenous
[43] = AUC (0 to infinity) in portal cannulated Beagle dog at 1 mg/kg, iv; format: ADME, organism-based, Canis lupus familiaris; set-up: time infinity, dose 1 mg/kg, route intravenous; conditions: plasma
[44] = biological target: Serotonin 3 (5-HT3) receptor (Homo sapiens) (UniProt P46098+A5X5Y0+O95264+Q70Z44+Q8WXA8); test: Inhibition of 5HT3 receptor at 1 uM; format: protein-complex assay
[45] = AUC (0 to infinity) in Beagle dog at 5 mg/kg, po; format: ADME, organism-based, Canis lupus familiaris; set-up: time infinity, dose 5 mg/kg, route oral; conditions: plasma
[46] = Half life in rat at 5 mg/kg, iv; format: ADME, organism-based; set-up: dose 5 mg/kg, route intravenous; conditions: in vivo
[47] = AUC (0 to infinity) in rat at 1 mg/kg, iv; format: ADME, organism-based; set-up: time infinity, dose 1 mg/kg, route intravenous; conditions: plasma
[48] = Half life in Beagle dog at 5 mg/kg, po; format: ADME, organism-based, Canis lupus familiaris; set-up: dose 5 mg/kg, route oral; conditions: in vivo
[49] = biological target: Beta-1 adrenergic receptor (Homo sapiens) (UniProt P08588); test: Inhibition of adrenergic b1 receptor at 1 uM
Sequence of Beta-1 adrenergic receptor (Homo sapiens) (P08588 whole entry, looked up): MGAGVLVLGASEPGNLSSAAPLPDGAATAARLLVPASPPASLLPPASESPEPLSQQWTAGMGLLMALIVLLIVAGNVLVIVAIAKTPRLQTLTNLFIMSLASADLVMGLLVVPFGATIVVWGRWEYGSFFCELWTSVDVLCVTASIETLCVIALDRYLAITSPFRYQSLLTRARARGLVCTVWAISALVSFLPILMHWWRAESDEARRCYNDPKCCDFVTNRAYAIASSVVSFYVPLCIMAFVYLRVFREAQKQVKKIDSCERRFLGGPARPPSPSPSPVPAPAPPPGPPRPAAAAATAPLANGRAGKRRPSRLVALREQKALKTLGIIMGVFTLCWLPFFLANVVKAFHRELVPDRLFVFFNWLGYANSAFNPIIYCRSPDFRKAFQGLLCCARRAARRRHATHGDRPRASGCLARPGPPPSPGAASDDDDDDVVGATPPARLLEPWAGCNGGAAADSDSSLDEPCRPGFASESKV

[50] = Permeability from apical to basolateral side of the Caco-2 cell membrane at 1 uM; format: ADME, cell-based; conditions: human
Canis familiaris [51] = test: Decrease in food intake in obese Beagle dog at 0.39 mg/kg, po after 3 months; format: functional, Canis lupus familiaris; set-up: scale not given: the % may be the effect or the level left
[52] = Half life in Beagle dog at 0.5 mg/kg, po; format: ADME, organism-based, Canis lupus familiaris; set-up: dose 0.5 mg/kg, route oral; conditions: in vivo

CN(Cc1ccccc1)C(=O)[C@@H](NC(=O)c1cc2cc(NC(=O)c3ccccc3-c3ccc(C(F)(F)F)cc3)ccc2n1C)c1ccccc1 [DIRLOTAPIDE]
IC50 (Cytochrome P450 3A4): > 30 µM
Activity (Homo sapiens [1]): inactive
half-life [2]: 6.8 h
Activity [3]: inactive
Activity [4]: inactive
Activity [5]: Not Active
Activity [6]: inactive
Papp B→A at 10 µM [7]: 0.3 ×10⁻⁶ cm/s
AUC(0-inf) [8]: 663 ng·h/mL
Activity [9]: inactive
Fu (Plasma [10]): 0.032%
Activity (Canis familiaris [11]): 1.86%
Activity [12]: inactive
AUC(0-inf) [13]: 1550 ng·h/mL
Activity [14]: inactive
AUC(0-inf) [15]: 379 ng·h/mL
half-life at 0.5 µM (CYP2C19): 1.17 h
Activity (Homo sapiens [16]): inactive
Tmax [17]: 2.1 h
Activity [18]: inactive
AUC(0-t) [19]: 684 ng·h/mL
Fu (Plasma [20]): 0.0088%
half-life at 0.5 µM [21]: 0.8 h
Vd [22]: 3.3 L/kg
Activity [23]: inactive
Activity (Homo sapiens [24]): inactive
Papp A→B at 10 µM [25]: 0.4 ×10⁻⁶ cm/s
half-life at 0.5 µM (CYP1A2): 0.75 h
Activity [26]: inactive
Cmax [27]: 250 ng/mL
Activity [28]: inactive
half-life [29]: 14 h
AUC(0-inf) [30]: 703 ng·h/mL
Vd [31]: 2.2 L/kg
ED25 (Mus musculus [32]): 6 mg/kg
clearance [33]: 5.5 mL/min/kg
Activity [34]: inactive
blood plasma ratio [35]: 0.61
Activity [36]: inactive
half-life [37]: 5 h
AUC(0-inf) [38]: 55 ng·h/mL
ED25 (Mus musculus [39]): 0.16 mg/kg
AUC(0-t) [40]: 5610 ng·h/mL
half-life [41]: 6.3 h
IC50 (Cytochrome P450 2C19): > 30 µM
IC50 (Cytochrome P450 2D6): > 30 µM
clearance [42]: 7.6 mL/min/kg
AUC(0-inf) [43]: 2820 ng·h/mL
Activity [44]: inactive
AUC(0-inf) [45]: 1930 ng·h/mL
half-life [46]: 11.3 h
AUC(0-inf) [47]: 530 ng·h/mL
half-life [48]: 5.9 h
Activity [49]: inactive
Papp A→B at 1 µM [50]: 0.9 ×10⁻⁶ cm/s
Activity (Canis familiaris [51]): 54%
half-life [52]: 14.1 h
